# Test results: patent US20080254993A1, “Use of abscisic acid analogs to enhance growth control” (priority 2007, published 2008)
# How the values were obtained:
# [1] = system: tomato; experiment: Tomato leaf transpiration, greenhouse, porometer (Example 5); type: in vivo, Tomato (variety: Rutgers)
# From the text: (§1) The effect of ABA analog (PBI-429) and trinexapac-ethyl combinations on transpiration and growth inhibition of dicotyledonous (tomato) was also examined in the greenhouse condition. Tomato (variety: Rutgers) seeds were sown in 18-cell flat filled with Promix PGX (available from Premier Horticulture Inc. Quakertown, Pa.) and grown for 3 weeks to allow for germination and initial growth. Plants were then transplanted into pots (18 cm in diameter and 18 cm in height), filled with Promix BX (available from Premier Horticulture Inc. Quakertown, Pa.), and grown for one week before the chemical treatment. Plants received daily irrigation and weekly fertilizer (1 g/L all purpose fertilizer 20-20-20, available from The Scotts Company, Marysville, Ohio). During the chemical treatment, a 24 mL (4 mL/plant) solution was foliar sprayed on the tomato canopy. Leaf transpiration rates were measured using a LI-1600 Steady State Porometer (LI-Cor, Lincoln, Nebr.) at 3, 5, 7, 10, and 14 days after treatment. The leaf transpiration rate was normalized to the percentage of control plant to minimize the experimental errors caused by environmental factors. Plant height was measured at 0, 3, 5, 7, 10 and 14 days after treatment. The growth rate was calculated based on the changes of plant height in certain intervals. The plants were harvested and the leaf number was counted at 14 days after treatment.
# [2] = system: tomato; experiment: Tomato plant height, growth rate and leaf number, greenhouse (Example 5); type: in vivo, Tomato (variety: Rutgers)
# From the text: as §1
# [3] = system: creeping bentgrass; experiment: Golf course green field study on creeping bentgrass with PBI-429: turfgrass height, soil moisture, turf quality (Example 2); type: in vivo, Penncross creeping bentgrass; conditions: for Soil moisture / Turfgrass height / Turf quality: 50 ppm PBI-429 alone; for Soil moisture (in words) / Turfgrass height (in words): trinexapac-ethyl 25 ppm, PBI-429 50 ppm, alone or combined; for Turf quality: visual 0-9 scale, 9 best
# Protocol: Field studies were conducted at the nursery green or the practice green at Countryside golf course (Mundelein, Ill.). Both greens were sand based and growing Penncross creeping bentgrass. Grass was managed with typical Illinois golf course management practices.
# Chemical solutions were prepared with distilled water. Tween 20 (0.05% v/v) was used as the surfactant when necessary. Trinexapac-ethyl (commercial product Primo Maxx, 11.3% active ingredient) was purchased from Syngenta Crop Protection Inc. (Greensboro, N.C.). ABA analogs, 8′ acetylene-ABA, acid (PBI-524), 8′ acetylene-ABA, ester (PBI-429), 8′ cyclopropane ester (PBI-696), or Tetralone, first carbon tail acetylene, ester (PBI-702), were obtained from Plant Biotechnology Institute, National Research Council of Canada (Saskatoon, Saskatchewan, Canada).
# Chemical solutions were foliar applied to the turfgrass canopy at the rate of 4-gallons/1000 square foot (or 0.163 L/m^−2) immediately after finishing the preparation of solutions. After treatment, turfgrasses were arranged in a randomized complete block experimental design. Turfgrass quality, turfgrass height or clip fresh weight was measured on assigned dates. Turfgrass quality was visually rated on a 0-9 scale based on the color, uniformity, and density of the grass with 0 as the worst and 9 as the best. Turfgrass height was measured as the distance between canopy surface and soil. Clippings were collected form each plot; all plots were cut to a uniform height.
# All experiments were randomized complete block experimental design. Data were analyzed by analysis of variance. Duncan's new multiple range tests at α=0.05 were used for mean separations.
# Trinexapac-ethyl (25 ppm) or PBI-429 (50 ppm) were one time foliar applied alone or in combination to creeping bentgrass in the golf course green to investigate their effect on turfgrass quality, growth inhibition and soil moisture.
# [4] = 25 ppm PBI-429, 3 days after treatment
# [5] = 25 ppm PBI-429, 5 days after treatment
# [6] = 25 ppm PBI-429, 7 days after treatment
# [7] = 25 ppm PBI-429, 10 days after treatment
# [8] = 25 ppm PBI-429, 14 days after treatment
# [9] = 50 ppm PBI-429, 3 days after treatment
# [10] = 50 ppm PBI-429, 5 days after treatment
# [11] = 50 ppm PBI-429, 7 days after treatment
# [12] = 50 ppm PBI-429, 10 days after treatment
# [13] = 50 ppm PBI-429, 14 days after treatment
# [14] = 100 ppm PBI-429, 3 days after treatment
# [15] = 100 ppm PBI-429, 5 days after treatment
# [16] = 100 ppm PBI-429, 7 days after treatment
# [17] = 100 ppm PBI-429, 10 days after treatment
# [18] = 100 ppm PBI-429, 14 days after treatment
# [19] = 200 ppm PBI-429, 3 days after treatment
# [20] = 200 ppm PBI-429, 5 days after treatment
# [21] = 200 ppm PBI-429, 7 days after treatment
# [22] = 200 ppm PBI-429, 10 days after treatment
# [23] = 200 ppm PBI-429, 14 days after treatment
# [24] = PBI-429 25-200 ppm, trinexapac-ethyl 250-2000 ppm, alone or combined
structure (smiles),measurement,setting,value
"C#CC1(C)CC(=O)C=C(C)C1(O)/C=C/C(C)=C\C(=O)OC (stereo not drawn) [PBI-429, 8′ acetylene-ABA, ester]",Transpiration,[1]; [4],53 % of control
same,Transpiration,[1]; [5],61 % of control
same,Transpiration,[1]; [6],75 % of control
same,Transpiration,[1]; [7],80 % of control
same,Transpiration,[1]; [8],103 % of control
same,Transpiration,[1]; [9],36 % of control
same,Transpiration,[1]; [10],32 % of control
same,Transpiration,[1]; [11],42 % of control
same,Transpiration,[1]; [12],69 % of control
same,Transpiration,[1]; [13],99 % of control
same,Transpiration,[1]; [14],34 % of control
same,Transpiration,[1]; [15],29 % of control
same,Transpiration,[1]; [16],38 % of control
same,Transpiration,[1]; [17],55 % of control
same,Transpiration,[1]; [18],98 % of control
same,Transpiration,[1]; [19],26 % of control
same,Transpiration,[1]; [20],24 % of control
same,Transpiration,[1]; [21],28 % of control
same,Transpiration,[1]; [22],34 % of control
same,Transpiration,[1]; [23],71 % of control
same,Tomato leaf transpiration (in words),"[1]; PBI-429 25-200 ppm, trinexapac-ethyl 250-2000 ppm, alone or combined, 3-14 days after treatment",inhibited tomato leaf transpiration
same,Plant height,"[2]; 25 ppm PBI-429, 0 days after treatment",6.3 cm
same,Growth rate,[2]; [4],0.8 cm/day
same,Plant height,[2]; [4],8.6 cm
same,Growth rate,[2]; [5],0.9 cm/day
same,Plant height,[2]; [5],10.4 cm
same,Growth rate,[2]; [6],1.2 cm/day
same,Plant height,[2]; [6],12.8 cm
same,Growth rate,[2]; [7],1.1 cm/day
same,Plant height,[2]; [7],16.0 cm
same,Growth rate,[2]; [8],1.2 cm/day
same,Leaf number,[2]; [8],11.0
same,Plant height,[2]; [8],20.7 cm
same,Plant height,"[2]; 50 ppm PBI-429, 0 days after treatment",6.3 cm
same,Growth rate,[2]; [9],0.6 cm/day
same,Plant height,[2]; [9],8.8 cm
same,Growth rate,[2]; [10],0.6 cm/day
same,Plant height,[2]; [10],10.0 cm
same,Growth rate,[2]; [11],0.8 cm/day
same,Plant height,[2]; [11],11.6 cm
same,Growth rate,[2]; [12],0.8 cm/day
same,Plant height,[2]; [12],13.9 cm
same,Growth rate,[2]; [13],1.1 cm/day
same,Leaf number,[2]; [13],11.0
same,Plant height,[2]; [13],18.2 cm
same,Plant height,"[2]; 100 ppm PBI-429, 0 days after treatment",6.3 cm
same,Growth rate,[2]; [14],0.6 cm/day
same,Plant height,[2]; [14],8.4 cm
same,Growth rate,[2]; [15],0.5 cm/day
same,Plant height,[2]; [15],9.4 cm
same,Growth rate,[2]; [16],0.7 cm/day
same,Plant height,[2]; [16],10.8 cm
same,Growth rate,[2]; [17],0.7 cm/day
same,Plant height,[2]; [17],12.8 cm
same,Growth rate,[2]; [18],0.9 cm/day
same,Leaf number,[2]; [18],10.8
same,Plant height,[2]; [18],16.2 cm
same,Plant height,"[2]; 200 ppm PBI-429, 0 days after treatment",6.4 cm
same,Growth rate,[2]; [19],0.5 cm/day
same,Plant height,[2]; [19],7.9 cm
same,Growth rate,[2]; [20],0.4 cm/day
same,Plant height,[2]; [20],8.7 cm
same,Growth rate,[2]; [21],0.5 cm/day
same,Plant height,[2]; [21],9.6 cm
same,Growth rate,[2]; [22],0.4 cm/day
same,Plant height,[2]; [22],10.9 cm
same,Growth rate,[2]; [23],0.7 cm/day
same,Leaf number,[2]; [23],10.5
same,Plant height,[2]; [23],13.8 cm
same,Tomato leaf number (in words),"[2]; 14 days after treatment, PBI-429 25-200 ppm, trinexapac-ethyl 250-2000 ppm, alone or combined",only significantly reduced leaf number at the highest rate
same,Tomato growth rate in terms of plant height (in words),[2]; [24],decreased tomato growth rate
same,Tomato plant height (in words),[2]; [24],decreased tomato plant height
same,Soil moisture,[3]; 4 days after treatment,13.3%
same,Turfgrass height,[3]; 4 days after treatment,6.7 mm
same,Soil moisture (in words),[3]; 4 days after treatment,increase soil moisture
same,Turfgrass height (in words),[3]; 4 days after treatment,reduced turfgrass height more than the combination of trinexapac-ethyl and PBI-429
same,Soil moisture,[3]; 7 days after treatment,13.1%
same,Turfgrass height,[3]; 7 days after treatment,6.3 mm
same,Turf quality,[3]; 7 days after treatment,7.1
same,Soil moisture (in words),[3]; 7 days after treatment,increase soil moisture
same,Turfgrass height (in words),[3]; 7 days after treatment,reduced turfgrass height similarly
same,Soil moisture,[3]; 38 days after treatment,12.9%
same,Turfgrass height,[3]; 38 days after treatment,5.5 mm
same,Turf quality,[3]; 38 days after treatment,8.0
